In patent US20050112066A1, “Complexes of cyclic polyaza chelators with cations of alkaline earth metals for enhanced biological activity” (CONCAT LP, a California Limited Partnership, priority 2003, published 2005):
≈ marks a conversion by molar mass, not a printed value. Like-named read-outs stand apart in the source and are kept apart here.

Experiments:
Corynebacterium Xerosis = test: minimum inhibitory concentration against skin bacteria; type: cell-based
Protocol: This effect is unexpected since the presence of cations other than those of first transition series elements would be expected to inhibit the rate and extent of complexation of the first transition series elements by both the cyclic and linear chelators, albeit to differing degrees.
Two chelators were compared in terms of their minimum inhibitory concentrations (MIC) against the common skin bacteria Corynebacterium Xerosis in media containing either 3.7 mg/L or 137 mg/L of Ca(II). The two chelators were N,N′,N″-tri(dihydroxyphosphoryl methyl)-1,4,7-triazacyclononane (within the scope of the present invention) and diethylene triamine pentaacetic acid (DTPA) (outside the scope of the present invention). The MIC for the triazacyclononane was 8 μg/mL in medium containing 3.7 mg/L of Ca(II), and 5 μg/mL in medium containing 137 mg/L of Ca(II).

[1] = room temperature; cited from earlier work
Sprague Dawley rats = test: subacute toxicity, repeated intravenous doses to rats; type: in vivo; settings: 0.05 millimoles per kg i.v. on 10 days
From the text: Ten male Sprague Dawley rats 29 days old and weighing between 73.4 and 87.8 grams at the beginning of the experiment were randomized, employing the block stratification method, into two groups consisting of five rats each. On each of days 1, 2, 3, 6, 7, 8, 9, 10,13 and 14 of the experiment one set of rats received an intravenous dose of N,N′,N″-tri(dihydroxyphosphoryl methyl)-1,4,7-triazacyclononane equal to 0.05 millimoles per kg of initial body weight (experimental group) while the other group received an equivalent volume of normal saline solution. The weights of the animals were recorded three times per week and the animals were sacrificed on the 28th day, major organs removed and weighed and tissues removed for microscopic examination.

[2] = test system: HFF (human foreskin fibroblasts); test: toxicity toward nonproliferating mammalian cells in vitro; type: cell-based; settings: 0.3 mM; mature, nonreplicating HFF cultures in maintenance media; five-day period of observation
Protocol: This example illustrates the relatively low toxicity of a representative example of the chelators of this invention toward nonproliferating mammalian cells in vitro.
To mature, nonreplicating cultures of HFF (human foreskin fibroblasts) kept in maintenance media was added N,N′,N″-tris(dihydroxyphosphorylmethyl)-1,4,7-triazacyclononane at a concentration of 0.3 mM. No effect on the resting cells was observed over a five-day period of observation.

[3] = test system: mammalian cell replication; test: inhibition of mammalian cell replication in vitro; type: cell-based
Laboratory mice = test: acute in vivo toxicity, single intravenous dose to mice; settings: 3.0 mM/kg single intravenous dose
Protocol: This example illustrates the low in vivo toxicity of a representative example of the chelators of this invention upon administration to mice.
Laboratory mice were treated by the intravenous administration of 3.0 mM/kg intravenously of the sodium salt of N,N′,N″-tris(dihydroxyphosphoryl-methyl)-1,4,7-triazacyclononane as a single intravenous dose. […] This in vivo LD50 toxicity dose results in an instantaneous in vivo concentration which is orders of magnitude greater than the dose of this agent which inhibits mammalian cell replication in vitro (0.009 mM/L).

Compound `O=C(O)CN(CCN(CC(=O)O)CC(=O)O)CCN(CC(=O)O)CC(=O)O` [DTPA, diethylene triamine pentaacetic acid, reference compound] has an MIC (Corynebacterium Xerosis; medium containing 3.7 mg/L of Ca(II)) of 36 µg/mL (≈ 91.5 µM) and an MIC (Corynebacterium Xerosis; medium containing 137 mg/L of Ca(II)) of 320 µg/mL (≈ 814 µM).
In the case of `O=P(O)(O)CN1CCN(CP(=O)(O)O)CCN(CP(=O)(O)O)CC1` [N,N′,N″-Tris-(dihydroxyphosphorylmethyl)-1,4,7-triazacyclononane], the MIC (Corynebacterium Xerosis; Corynebacterium xerosis, medium containing 3.7 mg/L of Ca(II), read-out: MIC) is given as 8 µg/mL (≈ 19.5 µM), the MIC (Corynebacterium Xerosis; Corynebacterium xerosis, medium containing 137 mg/L of Ca(II), read-out: MIC) is given as 5 µg/mL (≈ 12.2 µM) and the “time to achieve equilibrium with the cations” value [1] is given as “many months”. For the same compound, the “differences between tissues upon microscopic examination of major organs vs control group” value (Sprague Dawley rats; necropsy on the 28th day) was “no differences”, the “difference in weight or rate of weight gain vs control group” value (Sprague Dawley rats; period of injections and two-week post-injection period) was “no statistically significant difference” and the “differences in weights of major organs vs control group” value (Sprague Dawley rats; sacrificed on the 28th day) was “no differences”. For the same compound, the “effect on the resting cells” value [2] was “No effect”.
With `O=P([O-])([O-])CN1CCN(CP(=O)(O)O)CCN(CP(=O)(O)O)CC1.[Na+].[Na+]` [sodium salt of N,N′,N″-tris(dihydroxyphosphoryl-methyl)-1,4,7-triazacyclononane] the “dose which inhibits mammalian cell replication in vitro” value [3] was 0.009 mM/L and the “mice surviving for over 14 days” value (Laboratory mice) was “Over 50%”.
